Laboratory results taken from the supplement of paper PMC4862054.

What was measured:
Settings in all cases: incubation time: 72 h
MFM-223 = assay: drug sensitivity score (DSS), CellTox Green (DSS (AUC-based score)); higher = stronger drug effect (viability inhibition or cytotoxicity); extreme values may be limits of the assay
Outline: (§1)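 After 72 h of incubation in 384-well plates with compound at 5 concentrations (10-fold steps, 10,000-fold range set per compound), breast cancer cell lines seeded in 20 µl suspension were read first for CellTox Green fluorescence at 485/520 nm. CellTiter-Glo luminescence was measured next, after 10 min at room temperature. Normalisation on each plate used 0.1 % DMSO and a positive kill control, and the drug sensitivity score was computed from the area under the fitted dose-response curve.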

DU-4475 = assay: as above
Outline: as §1

CAL-148 = assay: as above
Outline: as §1

CAL-120 [1] = assay: as above
Outline: as §1

HCC1143 = assay: as above
Outline: as §1

BT-549 = assay: as above
Outline: as §1

BT-474 = assay: as above
Outline: as §1

HDQ-P1 [2] = assay: as above
Outline: as §1

MDA-MB-468 = assay: as above
Outline: as §1

MDA-MB-453 = assay: as above
Outline: as §1

MCF-10A = assay: as above
Outline: as §1

CAL-85-1 = assay: as above
Outline: as §1

HCC1599 = assay: as above
Outline: as §1

HCC1937 = assay: as above
Outline: as §1

MDA-MB-436 = assay: as above
Outline: as §1

CAL-51 = assay: as above
Outline: as §1

MDA-MB-231 [3] = assay: as above
Outline: as §1

Hs578T = assay: as above
Outline: as §1

CAL-120 [4] = assay: normalised response (% of control), CellTox Green; higher = less cell death (100 = DMSO, 0 = benzethonium chloride kill control)
Outline: (§2)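 Each value is the plate-normalised signal at one concentration of the series. Breast cancer cell lines (20 µl suspension) were incubated 72 h in 384-well plates with compound at 5 concentrations in 10-fold steps over a compound-specific 10,000-fold range. CellTox Green and then CellTiter-Glo were read, and each plate was scaled to 0.1 % DMSO (100) and a positive kill control (0).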

HDQ-P1 [5] = assay: as above
Outline: as §2

MDA-MB-231 [6] = assay: as above
Outline: as §2

CC(C)(C)Cn1c(N)nc2ccc(-c3[nH]c(C(C)(C)C)nc3-c3ccc(F)cc3)nc21
drug sensitivity score (MFM-223): 0
drug sensitivity score (DU-4475): 0
drug sensitivity score (CAL-148): 0
drug sensitivity score (CAL-120 [1]): 0.748
drug sensitivity score (HCC1143): 0
drug sensitivity score (BT-549): 0
drug sensitivity score (BT-474): 0
drug sensitivity score (HDQ-P1 [2]): 0
drug sensitivity score (MDA-MB-468): 0
drug sensitivity score (MDA-MB-453): 0
drug sensitivity score (MCF-10A): 0
drug sensitivity score (CAL-85-1): 4.77
drug sensitivity score (HCC1599): 0
drug sensitivity score (HCC1937): 0
drug sensitivity score (MDA-MB-436): 2.7
drug sensitivity score (CAL-51): 0
drug sensitivity score (MDA-MB-231 [3]): 0.996

Cn1cc(C[C@@H](N)C(=O)O)c2ccccc21 [1-methyl-D-tryptophan]
drug sensitivity score (MFM-223): 0
drug sensitivity score (DU-4475): 0
drug sensitivity score (CAL-148): 0
drug sensitivity score (CAL-120 [1]): 0
drug sensitivity score (HCC1143): 0
drug sensitivity score (BT-549): 0
drug sensitivity score (BT-474): 0
drug sensitivity score (HDQ-P1 [2]): 1.12
drug sensitivity score (MDA-MB-468): 1.22
drug sensitivity score (MDA-MB-453): 0
drug sensitivity score (MCF-10A): 0
drug sensitivity score (CAL-85-1): 0
drug sensitivity score (HCC1599): 0
drug sensitivity score (HCC1937): 0
drug sensitivity score (MDA-MB-436): 0
drug sensitivity score (CAL-51): 0
drug sensitivity score (Hs578T): 3.13
drug sensitivity score (MDA-MB-231 [3]): 0

CC[C@H](CC#N)OC(=O)N[C@@H](C)c1cccc(NC(=O)Nc2ccc(-c3cnco3)c(OC)c2)c1 [AVN944]
drug sensitivity score (MFM-223): 0
drug sensitivity score (DU-4475): 0
drug sensitivity score (CAL-148): 0
drug sensitivity score (CAL-120 [1]): 0
drug sensitivity score (HCC1143): 0
drug sensitivity score (BT-549): 0
drug sensitivity score (BT-474): 0
drug sensitivity score (HDQ-P1 [2]): 0
drug sensitivity score (MDA-MB-468): 0
drug sensitivity score (MDA-MB-453): 0
drug sensitivity score (MCF-10A): 0
drug sensitivity score (CAL-85-1): 0
drug sensitivity score (HCC1599): 0
drug sensitivity score (HCC1937): 0
drug sensitivity score (MDA-MB-436): 0
drug sensitivity score (CAL-51): 5.68
drug sensitivity score (Hs578T): 12.6
drug sensitivity score (MDA-MB-231 [3]): 0

CCc1cnn2c(NCc3ccc[n+]([O-])c3)cc(N3CCCC[C@H]3CCO)nc12 [Dinaciclib]
drug sensitivity score (MFM-223): 13.1
drug sensitivity score (DU-4475): 0
drug sensitivity score (CAL-148): 9.14
drug sensitivity score (CAL-120 [1]): 1.4
drug sensitivity score (HCC1143): 0
drug sensitivity score (BT-549): 0
drug sensitivity score (BT-474): 3.72
drug sensitivity score (HDQ-P1 [2]): 11.4
drug sensitivity score (MDA-MB-468): 19.6
drug sensitivity score (MDA-MB-453): 0
drug sensitivity score (MCF-10A): 6.99
drug sensitivity score (CAL-85-1): 18.4
drug sensitivity score (HCC1599): 5.57
drug sensitivity score (HCC1937): 0
drug sensitivity score (MDA-MB-436): 0
drug sensitivity score (CAL-51): 8.81
drug sensitivity score (Hs578T): 12.4
drug sensitivity score (MDA-MB-231 [3]): 25.4

Cc1c(C(=O)Nc2ccc(N3C[C@@H](C)O[C@@H](C)C3)nc2)cccc1-c1ccc(OC(F)(F)F)cc1 [Erismodegib]
drug sensitivity score (MFM-223): 0
drug sensitivity score (DU-4475): 0
drug sensitivity score (CAL-148): 2.18
drug sensitivity score (CAL-120 [1]): 0
drug sensitivity score (HCC1143): 0
drug sensitivity score (BT-549): 0
drug sensitivity score (BT-474): 0
drug sensitivity score (HDQ-P1 [2]): 0
drug sensitivity score (MDA-MB-468): 0
drug sensitivity score (MDA-MB-453): 0
drug sensitivity score (MCF-10A): 0
drug sensitivity score (CAL-85-1): 0
drug sensitivity score (HCC1599): 0
drug sensitivity score (HCC1937): 0
drug sensitivity score (MDA-MB-436): 0
drug sensitivity score (CAL-51): 0
drug sensitivity score (Hs578T): 0
drug sensitivity score (MDA-MB-231 [3]): 0.0859

COc1cc(Nc2ncc(F)c(Nc3ccc4c(n3)N(COP(=O)(O)O)C(=O)C(C)(C)O4)n2)cc(OC)c1OC [Fostamatinib]
drug sensitivity score (MFM-223): 0
drug sensitivity score (DU-4475): 0
drug sensitivity score (CAL-148): 0
drug sensitivity score (CAL-120 [1]): 0
drug sensitivity score (HCC1143): 0
drug sensitivity score (BT-549): 11.4
drug sensitivity score (BT-474): 0
drug sensitivity score (HDQ-P1 [2]): 0
drug sensitivity score (MDA-MB-453): 0
drug sensitivity score (MCF-10A): 0
drug sensitivity score (CAL-85-1): 6.03
drug sensitivity score (HCC1599): 0
drug sensitivity score (HCC1937): 0
drug sensitivity score (MDA-MB-436): 0
drug sensitivity score (CAL-51): 3.3
drug sensitivity score (Hs578T): 3.65
drug sensitivity score (MDA-MB-231 [3]): 11.1

CC(C)NC[C@@H](C(=O)N1CCN(c2ncnc3c2[C@H](C)C[C@H]3O)CC1)c1ccc(Cl)cc1 [GDC-0068]
drug sensitivity score (MFM-223): 1.29
drug sensitivity score (DU-4475): 0
drug sensitivity score (CAL-148): 14.1
drug sensitivity score (CAL-120 [1]): 0
drug sensitivity score (HCC1143): 0
drug sensitivity score (BT-549): 0
drug sensitivity score (BT-474): 0.545
drug sensitivity score (HDQ-P1 [2]): 0.469
drug sensitivity score (MDA-MB-468): 3.49
drug sensitivity score (MDA-MB-453): 0
drug sensitivity score (MCF-10A): 0
drug sensitivity score (CAL-85-1): 0
drug sensitivity score (HCC1599): 0
drug sensitivity score (HCC1937): 0
drug sensitivity score (MDA-MB-436): 0
drug sensitivity score (CAL-51): 2.24
drug sensitivity score (Hs578T): 0
drug sensitivity score (MDA-MB-231 [3]): 0

CCCc1cc(C)[nH]c(=O)c1CNC(=O)c1cc(-c2ccnc(N3CCN(C)CC3)c2)cc2c1cnn2C(C)C [GSK343]
drug sensitivity score (MFM-223): 7.62
drug sensitivity score (DU-4475): 0
drug sensitivity score (CAL-148): 0
drug sensitivity score (CAL-120 [1]): 0
drug sensitivity score (HCC1143): 0
drug sensitivity score (BT-549): 0
drug sensitivity score (BT-474): 5.28
drug sensitivity score (HDQ-P1 [2]): 0
drug sensitivity score (MDA-MB-468): 0
drug sensitivity score (MDA-MB-453): 6.47
drug sensitivity score (MCF-10A): 0
drug sensitivity score (CAL-85-1): 2.18
drug sensitivity score (HCC1599): 1.18
drug sensitivity score (HCC1937): 0
drug sensitivity score (MDA-MB-436): 0
drug sensitivity score (CAL-51): 0
drug sensitivity score (Hs578T): 4.43
drug sensitivity score (MDA-MB-231 [3]): 7.22

COc1cc2c(cc1-c1c(C)noc1C)ncc1[nH]c(=O)n([C@H](C)c3ccccn3)c12 [I-BET151]
drug sensitivity score (MFM-223): 0
drug sensitivity score (DU-4475): 0.559
drug sensitivity score (CAL-148): 0
drug sensitivity score (CAL-120 [1]): 0
drug sensitivity score (HCC1143): 0
drug sensitivity score (BT-549): 0
drug sensitivity score (BT-474): 0
drug sensitivity score (HDQ-P1 [2]): 5.77
drug sensitivity score (MDA-MB-468): 5.63
drug sensitivity score (MDA-MB-453): 0
drug sensitivity score (MCF-10A): 2.02
drug sensitivity score (CAL-85-1): 5.11
drug sensitivity score (HCC1599): 0
drug sensitivity score (HCC1937): 0
drug sensitivity score (MDA-MB-436): 1.57
drug sensitivity score (CAL-51): 4.63
drug sensitivity score (Hs578T): 0
drug sensitivity score (MDA-MB-231 [3]): 1.07

CC(C)n1nc(-c2ccc3oc(N)nc3c2)c2c(N)ncnc21 [INK128]
drug sensitivity score (MFM-223): 3.35
drug sensitivity score (DU-4475): 0
drug sensitivity score (CAL-148): 8.35
drug sensitivity score (CAL-120 [1]): 0
drug sensitivity score (HCC1143): 0
drug sensitivity score (BT-549): 0
drug sensitivity score (BT-474): 0
drug sensitivity score (HDQ-P1 [2]): 0
drug sensitivity score (MDA-MB-468): 0
drug sensitivity score (MDA-MB-453): 0
drug sensitivity score (MCF-10A): 0
drug sensitivity score (CAL-85-1): 0
drug sensitivity score (HCC1599): 0
drug sensitivity score (HCC1937): 0
drug sensitivity score (MDA-MB-436): 0
drug sensitivity score (CAL-51): 1.08
drug sensitivity score (Hs578T): 10.3
drug sensitivity score (MDA-MB-231 [3]): 0

CO[C@H]1C[C@@H]2CC[C@@H](C)[C@@](O)(O2)C(=O)C(=O)N2CCCC[C@H]2C(=O)O[C@H]([C@H](C)C[C@@H]2CC[C@@H](O)[C@H](OC)C2)CC(=O)[C@H](C)/C=C(\C)[C@@H](O)[C@@H](OC)C(=O)[C@H](C)C[C@H](C)/C=C/C=C/C=C/1C [Sirolimus] (100 nM)
normalised response (CAL-120 [4]): 106%
normalised response (HDQ-P1 [5]): 108%
normalised response (MDA-MB-231 [6]): 116%

CN1CCN(c2nc(C3=C(c4c[nH]c5ccccc45)C(=O)NC3=O)c3ccccc3n2)CC1 [Sotrastaurin] (1000 nM)
normalised response (CAL-120 [4]): 102%
normalised response (HDQ-P1 [5]): 66.9%
normalised response (MDA-MB-231 [6]): 108%

CN1CCN(c2nc(C3=C(c4c[nH]c5ccccc45)C(=O)NC3=O)c3ccccc3n2)CC1 [Sotrastaurin] (10000 nM)
normalised response (CAL-120 [4]): 94.2%
normalised response (HDQ-P1 [5]): 102%
normalised response (MDA-MB-231 [6]): 115%

CC/C(=C(\c1ccccc1)c1ccc(OCCN(C)C)cc1)c1ccccc1 [Tamoxifen] (10000 nM)
normalised response (CAL-120 [4]): 83.5%
normalised response (HDQ-P1 [5]): 105%
normalised response (MDA-MB-231 [6]): 13.6%

Cn1nnc2c(C(N)=O)ncn2c1=O [Temozolomide] (1000 nM)
normalised response (CAL-120 [4]): 103%
normalised response (HDQ-P1 [5]): 100%
normalised response (MDA-MB-231 [6]): 109%

Cn1nnc2c(C(N)=O)ncn2c1=O [Temozolomide] (10000 nM)
normalised response (CAL-120 [4]): 98.5%
normalised response (HDQ-P1 [5]): 109%
normalised response (MDA-MB-231 [6]): 108%

CN1CCc2c(c3ccccc3n2Cc2ccc(C(=O)NO)cc2)C1 [Tubastatin A]
drug sensitivity score (MFM-223): 0
drug sensitivity score (DU-4475): 0
drug sensitivity score (CAL-148): 0
drug sensitivity score (CAL-120 [1]): 0
drug sensitivity score (HCC1143): 10
drug sensitivity score (BT-549): 0
drug sensitivity score (BT-474): 0.156
drug sensitivity score (HDQ-P1 [2]): 0
drug sensitivity score (MDA-MB-468): 1.42
drug sensitivity score (MDA-MB-453): 0
drug sensitivity score (MCF-10A): 0
drug sensitivity score (CAL-85-1): 0
drug sensitivity score (HCC1599): 0
drug sensitivity score (HCC1937): 0
drug sensitivity score (MDA-MB-436): 0
drug sensitivity score (CAL-51): 7.48
drug sensitivity score (Hs578T): 0
drug sensitivity score (MDA-MB-231 [3]): 2.06

CC[C@@H]1C(=O)N(C)c2cnc(Nc3ccc(C(=O)N[C@H]4CC[C@H](N5CCN(CC6CC6)CC5)CC4)cc3OC)nc2N1C(C)C [Volasertib] (100 nM)
normalised response (CAL-120 [4]): 89%
normalised response (HDQ-P1 [5]): -27.2%
normalised response (MDA-MB-231 [6]): -0.74%

CC[C@@H]1C(=O)N(C)c2cnc(Nc3ccc(C(=O)N[C@H]4CC[C@H](N5CCN(CC6CC6)CC5)CC4)cc3OC)nc2N1C(C)C [Volasertib] (1000 nM)
normalised response (CAL-120 [4]): 63.5%
normalised response (HDQ-P1 [5]): 31.2%
normalised response (MDA-MB-231 [6]): 95%
